From ChEMBL document CHEMBL5291721, “A preclinical secondary pharmacology resource illuminates target-adverse drug reaction associations of marketed drugs” (Nat Commun, 2023) come the findings set out here.

Targets include Estrogen receptor beta (Homo sapiens, UniProt Q92731); Histamine H2 receptor (Homo sapiens, UniProt P25021); Substance-P receptor (Homo sapiens, UniProt P25103).
The target of assay [1] is T1, Alpha-2A adrenergic receptor (Homo sapiens, UniProt P08913).
T1 sequence (P08913 whole entry): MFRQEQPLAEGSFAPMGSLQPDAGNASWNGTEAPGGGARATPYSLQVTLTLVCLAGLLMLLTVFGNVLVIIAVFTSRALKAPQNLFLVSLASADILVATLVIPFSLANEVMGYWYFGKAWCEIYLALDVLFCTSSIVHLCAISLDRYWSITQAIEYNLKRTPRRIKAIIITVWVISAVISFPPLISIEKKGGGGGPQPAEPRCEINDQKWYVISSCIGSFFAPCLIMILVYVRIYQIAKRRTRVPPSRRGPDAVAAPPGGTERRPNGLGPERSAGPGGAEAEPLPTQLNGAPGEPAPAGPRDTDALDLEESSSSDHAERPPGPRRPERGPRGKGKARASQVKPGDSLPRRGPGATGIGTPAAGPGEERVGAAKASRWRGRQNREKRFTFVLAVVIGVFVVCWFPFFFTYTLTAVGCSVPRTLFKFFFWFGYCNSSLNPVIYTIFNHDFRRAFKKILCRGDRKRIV

Another assay has as its target Cannabinoid receptor 1 (Homo sapiens, UniProt P21554). It is filed as functional.
For assay [2], the target named is 5-hydroxytryptamine receptor 6 (Homo sapiens, UniProt P50406).
Assay [3] concerns the target T2, Muscarinic acetylcholine receptor M2 (Homo sapiens, UniProt P08172).
T2 sequence (P08172 whole entry): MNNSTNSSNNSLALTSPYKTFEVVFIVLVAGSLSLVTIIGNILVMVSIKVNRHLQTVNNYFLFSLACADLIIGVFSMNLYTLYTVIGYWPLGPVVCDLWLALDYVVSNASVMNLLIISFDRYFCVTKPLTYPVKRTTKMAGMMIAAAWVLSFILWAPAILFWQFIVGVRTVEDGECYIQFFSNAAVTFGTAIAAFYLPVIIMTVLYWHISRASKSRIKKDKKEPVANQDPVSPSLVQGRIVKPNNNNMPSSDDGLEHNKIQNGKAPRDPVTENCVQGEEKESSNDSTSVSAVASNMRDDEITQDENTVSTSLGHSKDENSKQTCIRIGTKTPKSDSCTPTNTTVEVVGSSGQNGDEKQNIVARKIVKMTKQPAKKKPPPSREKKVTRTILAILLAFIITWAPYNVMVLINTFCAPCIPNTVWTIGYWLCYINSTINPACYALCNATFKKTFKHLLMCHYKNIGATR

The target in the next assay is T3, D(4) dopamine receptor (Homo sapiens, UniProt P21917).
T3 sequence (P21917 whole entry): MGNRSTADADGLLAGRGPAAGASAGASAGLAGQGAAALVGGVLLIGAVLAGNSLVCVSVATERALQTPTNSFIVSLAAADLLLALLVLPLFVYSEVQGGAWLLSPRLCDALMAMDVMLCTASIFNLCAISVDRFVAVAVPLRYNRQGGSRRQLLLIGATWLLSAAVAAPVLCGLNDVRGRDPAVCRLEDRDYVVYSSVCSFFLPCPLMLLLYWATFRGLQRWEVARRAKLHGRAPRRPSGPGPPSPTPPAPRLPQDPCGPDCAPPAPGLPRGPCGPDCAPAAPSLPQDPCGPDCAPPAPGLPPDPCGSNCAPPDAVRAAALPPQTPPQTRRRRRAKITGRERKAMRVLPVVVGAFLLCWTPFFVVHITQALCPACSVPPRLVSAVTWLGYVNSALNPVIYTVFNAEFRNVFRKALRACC

For assay [4], the target named is T4, Alpha-1A adrenergic receptor (Homo sapiens, UniProt P35348).
T4 sequence (P35348 whole entry): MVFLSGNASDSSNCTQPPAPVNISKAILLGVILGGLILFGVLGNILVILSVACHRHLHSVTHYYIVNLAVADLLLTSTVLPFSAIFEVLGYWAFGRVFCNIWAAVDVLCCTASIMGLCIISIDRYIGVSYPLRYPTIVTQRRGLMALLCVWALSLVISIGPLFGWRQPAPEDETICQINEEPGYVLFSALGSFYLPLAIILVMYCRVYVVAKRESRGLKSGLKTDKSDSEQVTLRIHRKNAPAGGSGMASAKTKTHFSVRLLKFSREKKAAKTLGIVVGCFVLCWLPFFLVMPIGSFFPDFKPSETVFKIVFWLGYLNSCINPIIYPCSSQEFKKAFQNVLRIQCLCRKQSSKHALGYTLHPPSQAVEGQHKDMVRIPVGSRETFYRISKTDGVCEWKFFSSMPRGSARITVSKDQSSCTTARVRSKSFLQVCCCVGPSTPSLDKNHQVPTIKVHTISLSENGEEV

A further assay has as its target T5, Androgen receptor (Rattus norvegicus, UniProt P15207).
T5 sequence (P15207 whole entry): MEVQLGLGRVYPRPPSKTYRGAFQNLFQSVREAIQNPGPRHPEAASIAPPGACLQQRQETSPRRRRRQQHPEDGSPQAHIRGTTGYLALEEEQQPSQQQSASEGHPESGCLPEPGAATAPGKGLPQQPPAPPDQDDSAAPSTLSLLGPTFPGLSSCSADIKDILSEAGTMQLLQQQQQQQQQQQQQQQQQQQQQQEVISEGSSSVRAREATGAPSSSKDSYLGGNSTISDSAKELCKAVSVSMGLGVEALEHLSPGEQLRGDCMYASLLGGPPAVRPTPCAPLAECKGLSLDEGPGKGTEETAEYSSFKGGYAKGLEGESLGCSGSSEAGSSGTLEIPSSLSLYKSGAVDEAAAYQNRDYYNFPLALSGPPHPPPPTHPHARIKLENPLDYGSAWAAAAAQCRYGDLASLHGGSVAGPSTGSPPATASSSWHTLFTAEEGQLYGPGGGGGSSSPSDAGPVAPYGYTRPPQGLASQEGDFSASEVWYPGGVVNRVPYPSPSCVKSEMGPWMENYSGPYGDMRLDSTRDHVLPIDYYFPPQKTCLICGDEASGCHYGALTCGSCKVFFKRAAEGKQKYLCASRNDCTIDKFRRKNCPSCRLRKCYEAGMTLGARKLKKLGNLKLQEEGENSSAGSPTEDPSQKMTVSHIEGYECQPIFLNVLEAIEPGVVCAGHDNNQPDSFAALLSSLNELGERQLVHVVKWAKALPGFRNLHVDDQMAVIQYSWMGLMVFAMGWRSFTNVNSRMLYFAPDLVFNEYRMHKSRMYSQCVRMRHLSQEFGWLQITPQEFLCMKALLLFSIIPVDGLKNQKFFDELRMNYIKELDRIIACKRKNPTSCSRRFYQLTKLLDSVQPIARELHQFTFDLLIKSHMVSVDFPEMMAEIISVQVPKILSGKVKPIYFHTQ
Further: assay procedure not described here.

Substance-P receptor, sequence (P25103 whole entry): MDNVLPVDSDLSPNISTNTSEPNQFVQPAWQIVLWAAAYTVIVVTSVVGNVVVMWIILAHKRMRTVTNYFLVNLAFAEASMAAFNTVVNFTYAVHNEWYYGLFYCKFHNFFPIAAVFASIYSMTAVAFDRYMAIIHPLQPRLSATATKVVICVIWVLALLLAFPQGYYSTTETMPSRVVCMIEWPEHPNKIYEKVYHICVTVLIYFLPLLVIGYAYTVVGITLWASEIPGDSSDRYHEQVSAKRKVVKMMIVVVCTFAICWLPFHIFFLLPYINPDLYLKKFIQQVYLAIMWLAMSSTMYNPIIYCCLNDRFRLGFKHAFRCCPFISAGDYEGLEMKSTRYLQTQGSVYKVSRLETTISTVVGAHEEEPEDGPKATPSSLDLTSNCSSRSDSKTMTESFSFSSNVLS
Estrogen receptor beta, sequence (Q92731 whole entry): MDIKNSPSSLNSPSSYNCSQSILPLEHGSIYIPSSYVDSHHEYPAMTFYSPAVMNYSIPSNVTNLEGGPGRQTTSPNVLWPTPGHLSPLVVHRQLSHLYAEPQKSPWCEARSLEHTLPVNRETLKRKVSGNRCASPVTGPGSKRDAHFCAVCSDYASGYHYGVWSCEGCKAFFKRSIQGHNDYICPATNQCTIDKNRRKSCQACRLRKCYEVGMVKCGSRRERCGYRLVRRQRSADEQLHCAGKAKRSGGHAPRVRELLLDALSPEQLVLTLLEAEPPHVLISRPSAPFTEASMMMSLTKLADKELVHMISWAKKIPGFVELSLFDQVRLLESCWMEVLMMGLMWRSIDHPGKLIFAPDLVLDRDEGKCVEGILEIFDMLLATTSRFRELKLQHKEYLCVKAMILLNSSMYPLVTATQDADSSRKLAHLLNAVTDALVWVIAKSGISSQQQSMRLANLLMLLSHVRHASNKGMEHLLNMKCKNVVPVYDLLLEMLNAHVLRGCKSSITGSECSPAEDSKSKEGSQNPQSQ
Histamine H2 receptor, sequence (P25021 whole entry): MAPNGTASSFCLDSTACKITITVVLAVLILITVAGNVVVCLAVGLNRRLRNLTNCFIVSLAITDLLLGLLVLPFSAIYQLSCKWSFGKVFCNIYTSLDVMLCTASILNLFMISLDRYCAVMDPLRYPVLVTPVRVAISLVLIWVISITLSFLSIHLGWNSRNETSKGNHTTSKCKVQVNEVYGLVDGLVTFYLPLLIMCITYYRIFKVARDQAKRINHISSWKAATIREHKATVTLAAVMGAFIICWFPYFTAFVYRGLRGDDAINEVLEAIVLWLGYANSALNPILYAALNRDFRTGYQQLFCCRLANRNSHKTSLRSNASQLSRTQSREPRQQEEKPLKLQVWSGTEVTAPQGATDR
5-hydroxytryptamine receptor 6, sequence (P50406 whole entry): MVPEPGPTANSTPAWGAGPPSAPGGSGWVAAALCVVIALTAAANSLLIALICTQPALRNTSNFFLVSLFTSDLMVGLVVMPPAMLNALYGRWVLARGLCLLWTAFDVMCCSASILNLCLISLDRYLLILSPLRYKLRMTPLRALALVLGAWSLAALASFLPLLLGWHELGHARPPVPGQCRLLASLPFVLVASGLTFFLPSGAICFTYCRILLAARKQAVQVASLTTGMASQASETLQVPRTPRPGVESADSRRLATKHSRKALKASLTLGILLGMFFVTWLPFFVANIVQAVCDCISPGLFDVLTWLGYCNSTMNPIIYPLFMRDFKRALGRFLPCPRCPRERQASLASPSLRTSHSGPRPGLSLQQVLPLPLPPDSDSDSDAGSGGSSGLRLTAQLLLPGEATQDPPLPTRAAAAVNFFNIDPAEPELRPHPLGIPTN
Cannabinoid receptor 1, sequence (P21554 whole entry): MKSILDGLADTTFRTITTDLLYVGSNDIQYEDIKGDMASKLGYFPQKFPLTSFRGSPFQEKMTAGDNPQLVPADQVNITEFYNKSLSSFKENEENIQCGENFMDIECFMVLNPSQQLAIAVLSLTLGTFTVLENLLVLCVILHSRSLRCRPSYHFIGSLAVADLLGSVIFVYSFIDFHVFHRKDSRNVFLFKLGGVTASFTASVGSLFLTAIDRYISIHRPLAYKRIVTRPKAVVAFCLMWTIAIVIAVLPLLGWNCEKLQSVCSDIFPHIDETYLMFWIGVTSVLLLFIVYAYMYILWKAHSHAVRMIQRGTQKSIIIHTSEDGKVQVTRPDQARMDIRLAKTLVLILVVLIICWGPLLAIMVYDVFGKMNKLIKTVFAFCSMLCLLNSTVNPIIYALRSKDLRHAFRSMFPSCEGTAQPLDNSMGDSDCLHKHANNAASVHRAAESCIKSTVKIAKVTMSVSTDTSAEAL

A word on the AC50: it is the concentration at which the activity in the assay is half-maximal. Read a low AC50 as activity at low concentration. As for `O=C(Nc1ccccc1)OCC(CN1CCCCC1)OC(=O)Nc1ccccc1` (stereo unspecified) [DIPERODON], the AC50 is more than 30 µM on Estrogen receptor beta; more than 10 µM in [1]; more than 10 µM on Cannabinoid receptor 1; more than 10 µM at Histamine H2 receptor; more than 10 µM in [2]; more than 10 µM in [3]. In addition, the results for the AC50 (at D(4) dopamine receptor; in [4]; at Substance-P receptor) were 5.2 µM, more than 10 µM and more than 10 µM, respectively.
On to `CC(C)(N)Cc1ccc(Cl)cc1` [CHLORPHENTERMINE], for which the AC50 (in assay [1]; at Histamine H2 receptor; in [3]) was more than 10 µM in each case.
Consider `O=C1CCC(N2C(=O)c3ccccc3C2=O)C(=O)N1` (stereo unspecified) [THALIDOMIDE], for which the AC50 is more than 30 µM at Estrogen receptor beta; more than 10 µM in assay [1]; more than 10 µM at Histamine H2 receptor; more than 10 µM in [3]; more than 10 µM at D(4) dopamine receptor; more than 10 µM in assay [4]. Besides, the AC50 at Substance-P receptor is more than 10 µM.
In the case of `CC(C)NCC1CCc2cc(CO)c([N+](=O)[O-])cc2N1` (stereo unspecified) [OXAMNIQUINE], the AC50 at Androgen receptor was more than 10 µM.
Same read-out and setting: the value for `CN(C)[C@@H]1C(O)=C(C(N)=O)C(=O)[C@@]2(O)C(O)=C3C(=O)c4c(O)ccc(Cl)c4[C@@H](O)[C@H]3C[C@@H]12` [DEMECLOCYCLINE] was 2.6 µM.
In the case of `C=C1C[C@@H]2[C@H](CC[C@]3(C)C(=O)CC[C@@H]23)[C@@]2(C)C=CC(=O)C=C12` [EXEMESTANE], the AC50 is more than 30 µM at Estrogen receptor beta and more than 10 µM in assay [3].
Compound `CC(=O)N[C@H]1[C@H]([C@H](O)[C@H](O)CO)OC(C(=O)O)=C[C@@H]1N=C(N)N` [ZANAMIVIR] returned an AC50 on Androgen receptor of more than 30 µM.
In the case of `CN(C)CCCN1c2ccccc2Sc2ccccc21` [PROMAZINE], the AC50 at Estrogen receptor beta was more than 30 µM; in [1], 5 µM; at Cannabinoid receptor 1, more than 10 µM; on Histamine H2 receptor, 0.111 µM; in assay [2], 0.242 µM; in assay [3], 0.999 µM. Moreover, the values for the concentration at half-maximal activity (AC50) (on D(4) dopamine receptor; in [4]; at Substance-P receptor) were 0.551 µM, 0.0138 µM and more than 10 µM, respectively.
On to `O=P(O)(O)C(O)(Cc1cccnc1)P(=O)(O)O` [RISEDRONIC ACID], for which the AC50 (in [1]; at Cannabinoid receptor 1; at Histamine H2 receptor; in [2]; on D(4) dopamine receptor; in assay [4]) was more than 10 µM throughout. Also, the AC50 on Substance-P receptor was more than 10 µM.
In the case of `C[N+](C)(C)CCOC(N)=O` [CARBAMOYLCHOLINE], the AC50 at Androgen receptor was more than 10 µM.
